In patent publication US11648247B1, “Compositions and methods for the treatment of presbyopia” (Lenz Therapeutics, Inc., priority 2021, dated 2023):

Columns and labels:
presbyopic subjects [1] = test: Near and distance visual acuity after topical instillation (lines of improvement, onset, duration, efficacy index); type: in vivo, human
Protocol: As aceclidine is an […], the clinical effectiveness may vary with different ratios. For the present studies a nearly exact 50:50 ratio of stereoisomers was measured as best determined by polarimetry.
In brief, the score is calculated by multiplying the lines of improvement in near visual acuity by the number of hours the improvement lasts. For example, a score of: 5 is equal to +1 lines of improvement in near visual acuity for 5 hours; 10 is equal to +1.5 lines of improvement for 6.7 hours; 15 is equal to 2 lines of improvement for 7.5 hours; 20 is equal to 2.5 lines of improvement for 8 hours; 25 is equal to 3+ lines of improvement for 8.3 hours and 35 is equal to 3.75+ lines of improvement for 9 hours.
The subject instilled 2 drops of the above formulation in each eye as 1 single drop each eye and a second drop after 5 minutes.
2 subjects instilled 2 drops each of the above formulation in each eye about 5 minutes apart.
A 1.75% aceclidine in saline solution was formulated. One drop was instilled into each eye of a presbyopic subject. The visual acuity of the subject was tested both before and after instillation using a LogMAR chart.
Formulation AB#1 was instilled via 2-drops with a 5-minute interval in the eyes of a person. […] All near and distance vision with over-refraction was red-green adjusted to emmetropia. Near vision at 1 hour post instillation was measured. Further, duration to 20.40 vision was measured.

eye [2] = test: Comfort and tolerability after instillation (stinging, redness, ciliary spasm/brow ache, blur, dimming); type: in vivo, human; settings: for night vision / dimming: pH 7.5
Protocol: Ciliary spasms scores correspond to the following: 0=no discomfort; 0.5=slight sting; 1=noticeable squeeze/discomfort; 2=pain for less than 30 minutes; 3=pain for 1 hour or more; and 4=severe to intolerable pain.

[3] = Stability of aceclidine in storage (HPLC); type: physicochemical; settings: for Stability of Aceclidine: same composition
Protocol: 20 samples of the above composition were divided evenly and stored at 25° C. and 4° C. Prior to storage, initial concentrations of aceclidine were measured using […] (“HPLC”). The amount of aceclidine in each solution was calculated by the area under the principal peak compared to a reference solution of aceclidine. Samples were then subject to storage for 3 months. Aceclidine measurements were taken at 1, 2 and 3 months.

eye [4] = settings: brimonidine 0.20% w/v (Alphagan®) twice daily; cited from earlier work
pupil = settings: cited from earlier work
presbyopic subjects [5] = settings: pilocarpine with oxymetazoline, US 2014/0113946; cited from earlier work
[6] = post instillation, 1.75% aceclidine in saline solution

CC(=O)OC1CN2CCC1CC2 (racemic) [aceclidine]
near vision (presbyopic subjects [1]; FIG. 2, aceclidine in carrier: 5.5% HPβCD, 0.75% CMC, 0.25% NaCl, 0.01% BAK): < 20.20
LogMAR score at 1-meter distance (presbyopic subjects [1]; after instillation, 1.75% aceclidine in saline solution): −0.12 LogMAR
LogMAR score at 45 centimeters distance (presbyopic subjects [1]; after instillation, 1.75% aceclidine in saline solution, one drop each eye, 0.50 prior): 0.22 LogMAR
Noticeable degradation in reading distance acuity began (presbyopic subjects [1]; [6]): 4 h
improved reading distance acuity maintained (presbyopic subjects [1]; [6]): 3.5 h
Stinging, lasting (eye [2]; 1.35% w/v aceclidine, Example 2): 2 to 5 s
Stability of Aceclidine ([3]; 4° C., 1 month): 93%
Stability of Aceclidine ([3]; 4° C., 2 months): 92%
Stability of Aceclidine ([3]; 4° C., 3 months): 88%
Stability of Aceclidine ([3]; 4° C., Initial): 100%
Stability of Aceclidine ([3]; 25° C., 1 month): 92%
Stability of Aceclidine ([3]; 25° C., 2 months): 75%
Stability of Aceclidine ([3]; 25° C., 3 months): 50%
Stability of Aceclidine (amount vs reference) ([3]; 25° C., Initial, 1.50% aceclidine, 0.042% tropicamide, 5.5% polyoxyl 40 stearate, 2.5% mannitol, 3 mM citrate, pH 4.75): 100%

Brc1c(NC2=NCCN2)ccc2nccnc12 [brimonidine]
rebound redness (eye [4]): 25 % of patients
tachyphylaxis of pupil modulation (pupil; brimonidine 0.20% w/v topically for night vision, within four weeks of use): ~100 % of treated subjects
duration of miotic effect (pupil; brimonidine, typically): about four hours
transiently induced miosis (pupil; brimonidine): 1.0-2.0 mm

CC[C@@H]1C(=O)OC[C@@H]1Cc1cncn1C [pilocarpine]
time until full effect became diminished (presbyopic subjects [5]): about four hours

tropicamide
night vision / dimming (eye [2]; 0.035% w/v tropicamide in 1.55% w/v aceclidine composition): slight dimming
night vision / dimming (eye [2]; 0.042% w/v tropicamide in 1.55% w/v aceclidine composition): normal indoor night vision
effect on brow ache (eye [2]; tropicamide 0.01% w/v with aceclidine): slightly reduce brow ache
effect on brow ache (eye [2]; tropicamide 0.014% w/v with aceclidine): reduce brow ache
effect on brow ache (eye [2]; tropicamide 0.021% w/v with aceclidine): further reduce brow ache
effect on brow ache (eye [2]; tropicamide 0.030% w/v with aceclidine): further reduce brow ache
effect on brow ache (eye [2]; tropicamide from 0.028% to 0.060% w/v with aceclidine): completely eliminate brow ache
effect on brow ache (eye [2]; tropicamide from 0.04% to about 0.07% w/v with aceclidine): completely eliminate brow ache
